The values that follow come from patent US20250034159A1, “INHIBITORS OF EPIDERMAL GROWTH FACTOR RECEPTOR” (ORIC Pharmaceuticals, Inc., priority 2021, published 2025).

The target of assay [1] is recombinant human EGFR exon 19 deletion/C797S double mutant protein (Homo sapiens (Human), UniProt P00533, C797S/DEL746-750). Put plainly: Biological Activity Assay C: biochemical assay against EGFR exon 19 deletion/C797S protein (EGFR d19/CS). The procedure, abridged: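 IC50 values were fitted with a 4-parameter model to reaction slopes taken from 90 kinetic reads spaced 120 s apart. The Phosphosens sensor/ATP working solution was 40 uM/4 mM, and compound was dosed as 16-point dilutions at 2.5% final DMSO.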
recombinant human EGFR exon 19 deletion/C797S double mutant protein, sequence (P00533 other isoform, or with tags, fused parts or gaps C797S/del 1-668/del 746-750 limits assumed): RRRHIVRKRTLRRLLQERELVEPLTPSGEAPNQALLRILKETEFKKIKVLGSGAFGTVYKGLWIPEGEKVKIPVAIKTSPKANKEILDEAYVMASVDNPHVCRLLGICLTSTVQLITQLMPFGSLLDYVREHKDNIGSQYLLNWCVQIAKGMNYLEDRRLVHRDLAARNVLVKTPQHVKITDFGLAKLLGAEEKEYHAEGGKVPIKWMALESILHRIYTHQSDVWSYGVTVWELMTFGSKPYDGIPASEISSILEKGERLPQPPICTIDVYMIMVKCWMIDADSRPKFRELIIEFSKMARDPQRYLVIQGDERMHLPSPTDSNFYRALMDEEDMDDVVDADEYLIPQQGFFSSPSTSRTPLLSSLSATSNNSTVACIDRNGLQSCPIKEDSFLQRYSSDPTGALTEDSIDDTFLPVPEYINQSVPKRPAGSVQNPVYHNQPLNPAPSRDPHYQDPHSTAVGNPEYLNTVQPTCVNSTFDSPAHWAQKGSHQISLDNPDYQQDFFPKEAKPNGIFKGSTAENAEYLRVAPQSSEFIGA

The test system of another assay is Ba/F3_EGFR WT cells. Put plainly: Biological Activity Assay D: BaF3 cell proliferation assay, EGFR wild-type (BaF3 WT). To be noted: Ba/F3 EGFR, read-out: BaF3 WT IC50. The class given is cell-based.
A further assay has as its system BaF3_EGFR LR/CS cells. Put plainly: Biological Activity Assay D: BaF3 cell proliferation assay, EGFR L858R/C797S mutant (BaF3 LR/CS). It is filed as cell-based. The conditions noted are these: Ba/F3 EGFR, read-out: BaF3 LR/CS IC50.
The subject of the next assay is BaF3_EGFR d19/CS cells. Put plainly: Biological Activity Assay D: BaF3 cell proliferation assay, EGFR exon 19 deletion/C797S (BaF3 d19/CS). It is filed as cell-based. The conditions noted are these: Ba/F3 EGFR, read-out: BaF3 d19/CS IC50.
Setting [2] is: Ba/F3_EGFR WT cells, ~72 hours, CellTiter-Glo.
Setting [3] is: BaF3_EGFR LR/CS cells, ~72 hours, CellTiter-Glo.
[4] abbreviates: BaF3_EGFR d19/CS cells, ~72 hours, CellTiter-Glo.

Like-named read-outs stand apart in the source and are kept apart here.

In the case of `Cn1cnc(-c2cc3c(-c4cn([C@H]5C[C@@H](F)C5)nc4-c4ccc(F)cc4)ncnc3o2)c1` [Example 264, 4-{1-[(1s,3s)-3-fluorocyclobutyl]-3-(4-fluorophenyl)-1H-pyrazol-4-yl}-6-(1-methyl-1H-imidazol-4-yl)furo[2,3-d]pyrimidine], the IC50 is 0.135 nM in assay [1], 448 nM with Ba/F3_EGFR WT cells (setting [2]), 6.54 nM in the assay with BaF3_EGFR LR/CS cells (setting [3]) and 8.85 nM with BaF3_EGFR d19/CS cells (setting [4]).

Take `Cn1cnc(-c2cc3c(-c4cn(CCC#N)nc4-c4ccc(F)cc4)ncnc3o2)c1` [Example 265, 3-{3-(4-fluorophenyl)-4-[6-(1-methyl-1H-imidazol-4-yl)furo[2,3-d]pyrimidin-4-yl]-1H-pyrazol-1-yl}propanenitrile]: the IC50 in assay [1] was 0.078 nM; in the assay on Ba/F3_EGFR WT cells (setting [2]), 69.9 nM; with BaF3_EGFR LR/CS cells (setting [3]), 1.43 nM; in the assay on BaF3_EGFR d19/CS cells (setting [4]) it was 1.46 nM.

In the case of `Cn1cnc(-c2cc3c(-c4cn(CC(F)(F)CO)nc4-c4ccc(F)cc4)ncnc3o2)c1` [Example 266, 2,2-difluoro-3-{3-(4-fluorophenyl)-4-[6-(1-methyl-1H-imidazol-4-yl)furo[2,3-d]pyrimidin-4-yl]-1H-pyrazol-1-yl}propan-1-ol], the IC50 in assay [1] came out at 0.094 nM; in the assay with Ba/F3_EGFR WT cells (setting [2]) it was 135 nM; in the assay with BaF3_EGFR LR/CS cells (setting [3]), 2.13 nM; in the assay with BaF3_EGFR d19/CS cells (setting [4]) it was 2.5 nM.

With `Cn1ncc(-c2cc3c(-c4cn(CC(C)(C)O)nc4-c4ccc(F)cc4)ncnc3o2)c1C(F)F` [Example 267, 1-[4-{6-[5-(difluoromethyl)-1-methyl-1H-pyrazol-4-yl]furo[2,3-d]pyrimidin-4-yl}-3-(4-fluorophenyl)-1H-pyrazol-1-yl]-2-methylpropan-2-ol], the IC50 was 0.185 nM in assay [1], 688 nM in the assay on Ba/F3_EGFR WT cells (setting [2]), 22.2 nM in the assay on BaF3_EGFR LR/CS cells (setting [3]) and 16 nM in the assay on BaF3_EGFR d19/CS cells (setting [4]).

As to `N#CCCn1cc(-c2ncnc3oc(-c4cccnc4)cc23)c(-c2ccc(F)cc2)n1` [Example 268, 3-{3-(4-fluorophenyl)-4-[6-(pyridin-3-yl)furo[2,3-d]pyrimidin-4-yl]-1H-pyrazol-1-yl}propanenitrile], the IC50 amounted to 0.104 nM in assay [1], 414 nM with Ba/F3_EGFR WT cells (setting [2]), 16.5 nM with BaF3_EGFR LR/CS cells (setting [3]) and 13.3 nM in the assay with BaF3_EGFR d19/CS cells (setting [4]).

For the compound `N#CCCn1cc(-c2ncnc3oc(-c4ccccn4)cc23)c(-c2ccc(F)cc2)n1` [Example 269, 3-{3-(4-fluorophenyl)-4-[6-(pyridin-2-yl)furo[2,3-d]pyrimidin-4-yl]-1H-pyrazol-1-yl}propanenitrile], the IC50 was determined as 0.082 nM in assay [1], 392 nM with Ba/F3_EGFR WT cells (setting [2]), 8.63 nM in the assay on BaF3_EGFR LR/CS cells (setting [3]) and 7.72 nM in the assay on BaF3_EGFR d19/CS cells (setting [4]).

Regarding `Cn1cnc(-c2cc3c(-c4cn([C@H]5C[C@H](C#N)C5)nc4-c4ccc(F)cc4)ncnc3o2)c1` [Example 270, (1r,3r)-3-{3-(4-fluorophenyl)-4-[6-(1-methyl-1H-imidazol-4-yl)furo[2,3-d]pyrimidin-4-yl]-1H-pyrazol-1-yl}cyclobutane-1-carbonitrile], the IC50 came to 0.227 nM in assay [1], 134 nM with Ba/F3_EGFR WT cells (setting [2]), 1.88 nM in the assay with BaF3_EGFR LR/CS cells (setting [3]) and 1.32 nM in the assay with BaF3_EGFR d19/CS cells (setting [4]).

Consider `COc1ncccc1-c1cc2c(-c3cn(CC(C)(C)O)nc3-c3ccc(F)cc3)ncnc2o1` [Example 271, 1-{3-(4-fluorophenyl)-4-[6-(2-methoxypyridin-3-yl)furo[2,3-d]pyrimidin-4-yl]-1H-pyrazol-1-yl}-2-methylpropan-2-ol], for which the IC50 in assay [1] is 0.252 nM; with Ba/F3_EGFR WT cells (setting [2]), 1600 nM; in the assay with BaF3_EGFR LR/CS cells (setting [3]), 20.6 nM; with BaF3_EGFR d19/CS cells (setting [4]), 14.1 nM.

As for `Cc1c(-c2cc3c(-c4cn(CC(C)(C)O)nc4-c4ccc(F)cc4)ncnc3o2)ncn1C` [Example 272, 1-{4-[6-(1,5-dimethyl-1H-imidazol-4-yl)furo[2,3-d]pyrimidin-4-yl]-3-(4-fluorophenyl)-1H-pyrazol-1-yl}-2-methylpropan-2-ol], the IC50 in assay [1] came to 0.486 nM; with Ba/F3_EGFR WT cells (72 h), 668 nM; in the assay on BaF3_EGFR LR/CS cells (72 h) it was 13.5 nM; in the assay on BaF3_EGFR d19/CS cells (72 h) it was 15.7 nM.

Consider `Cn1ccc(-c2cc3c(-c4cn(CC(C)(C)O)nc4-c4ccc(F)cc4)ncnc3o2)n1` [Example 275, 1-{3-(4-fluorophenyl)-4-[6-(1-methyl-1H-pyrazol-3-yl)furo[2,3-d]pyrimidin-4-yl]-1H-pyrazol-1-yl}-2-methylpropan-2-ol], for which the IC50 was found to be 0.207 nM in assay [1], 551 nM in the assay on Ba/F3_EGFR WT cells (setting [2]), 13.4 nM in the assay on BaF3_EGFR LR/CS cells (setting [3]) and 11.9 nM with BaF3_EGFR d19/CS cells (setting [4]).

Turning to `COc1ccc(-c2cc3c(-c4cn(CC(C)(C)O)nc4-c4ccc(F)cc4)ncnc3o2)nc1` [Example 276, 1-{3-(4-fluorophenyl)-4-[6-(5-methoxypyridin-2-yl)furo[2,3-d]pyrimidin-4-yl]-1H-pyrazol-1-yl}-2-methylpropan-2-ol], the IC50 was 0.07 nM in assay [1], 677 nM with Ba/F3_EGFR WT cells (setting [2]), 19 nM with BaF3_EGFR LR/CS cells (setting [3]) and 13.5 nM in the assay on BaF3_EGFR d19/CS cells (setting [4]).

As for `CC(C)(O)Cn1cc(-c2ncnc3oc(-c4ccc(F)cn4)cc23)c(-c2ccc(F)cc2)n1` [Example 277, 1-{3-(4-fluorophenyl)-4-[6-(5-fluoropyridin-2-yl)furo[2,3-d]pyrimidin-4-yl]-1H-pyrazol-1-yl}-2-methylpropan-2-ol], the IC50 in assay [1] stood at 0.332 nM; with Ba/F3_EGFR WT cells (setting [2]), 1500 nM; in the assay with BaF3_EGFR LR/CS cells (setting [3]) it was 74.4 nM; in the assay on BaF3_EGFR d19/CS cells (setting [4]), 40 nM.

Regarding `Cn1cnc(-c2cc3c(-c4cn([C@H]5C[C@H](O)C5)nc4-c4ccc(F)cc4)ncnc3o2)c1` [Example 278, (1r,3r)-3-{3-(4-fluorophenyl)-4-[6-(1-methyl-1H-imidazol-4-yl)furo[2,3-d]pyrimidin-4-yl]-1H-pyrazol-1-yl}cyclobutan-1-ol], the IC50 stood at 0.123 nM in assay [1], 272 nM with Ba/F3_EGFR WT cells (setting [2]), 5.14 nM with BaF3_EGFR LR/CS cells (setting [3]) and 4.31 nM in the assay with BaF3_EGFR d19/CS cells (setting [4]).

As for `Cc1nn(C)cc1-c1cc2c(-c3cn([C@H]4C[C@H](C#N)C4)nc3-c3ccc(F)cc3)ncnc2o1` [Example 279, (1r,3r)-3-{4-[6-(1,3-dimethyl-1H-pyrazol-4-yl)furo[2,3-d]pyrimidin-4-yl]-3-(4-fluorophenyl)-1H-pyrazol-1-yl}cyclobutane-1-carbonitrile], the IC50 in assay [1] turned out to be 0.106 nM; with Ba/F3_EGFR WT cells (setting [2]), 476 nM; in the assay on BaF3_EGFR LR/CS cells (setting [3]), 8.89 nM; in the assay with BaF3_EGFR d19/CS cells (setting [4]) it was 5.64 nM.

`Cc1nn(C)c(C(F)F)c1-c1cc2c(-c3cn(CC(C)(C)O)nc3-c3ccc(F)cc3)ncnc2o1` [Example 280, 1-[4-{6-[5-(difluoromethyl)-1,3-dimethyl-1H-pyrazol-4-yl]furo[2,3-d]pyrimidin-4-yl}-3-(4-fluorophenyl)-1H-pyrazol-1-yl]-2-methylpropan-2-ol]: the IC50 in assay [1] was determined as 0.288 nM; in the assay with Ba/F3_EGFR WT cells (setting [2]) it was 857 nM; in the assay with BaF3_EGFR LR/CS cells (setting [3]), 38.2 nM; in the assay on BaF3_EGFR d19/CS cells (setting [4]) it was 31.7 nM.

As to `CC(C)(O)Cn1cc(-c2ncnc3oc(-c4cccc(F)n4)cc23)c(-c2ccc(F)cc2)n1` [Example 281, 1-{3-(4-fluorophenyl)-4-[6-(6-fluoropyridin-2-yl)furo[2,3-d]pyrimidin-4-yl]-1H-pyrazol-1-yl}-2-methylpropan-2-ol], the IC50 in assay [1] stood at 0.425 nM; in the assay with Ba/F3_EGFR WT cells (72 h) it was 1840 nM; with BaF3_EGFR LR/CS cells (72 h), 80.7 nM; with BaF3_EGFR d19/CS cells (72 h), 57.1 nM.

With `Cc1nc(-c2cc3c(-c4cn(CC(C)(C)O)nc4-c4ccc(F)cc4)ncnc3o2)ccc1F` [Example 282, 1-{4-[6-(5-fluoro-6-methylpyridin-2-yl)furo[2,3-d]pyrimidin-4-yl]-3-(4-fluorophenyl)-1H-pyrazol-1-yl}-2-methylpropan-2-ol], the IC50 in assay [1] was 0.307 nM; in the assay on Ba/F3_EGFR WT cells (setting [2]), 1980 nM; with BaF3_EGFR LR/CS cells (setting [3]), 62.9 nM; in the assay with BaF3_EGFR d19/CS cells (setting [4]), 40.7 nM.

On to `CC(C)(O)Cn1cc(-c2ncnc3oc(-c4cccnc4O)cc23)c(-c2ccc(F)cc2)n1` [Example 283, 3-{4-[3-(4-fluorophenyl)-1-(2-hydroxy-2-methylpropyl)-1H-pyrazol-4-yl]furo[2,3-d]pyrimidin-6-yl}pyridin-2-ol], for which the IC50 in assay [1] amounted to 0.113 nM; with Ba/F3_EGFR WT cells (setting [2]), 657 nM; in the assay with BaF3_EGFR LR/CS cells (setting [3]), 9.79 nM; in the assay on BaF3_EGFR d19/CS cells (setting [4]) it was 9.47 nM.

For the compound `CC(C)(O)Cn1cc(-c2ncnc3oc(-c4cnn5c4OCCC5(C)C)cc23)c(-c2ccc(F)cc2)n1` [Example 284, 1-(4-(6-(7,7-dimethyl-6,7-dihydro-5H-pyrazolo[5,1-b][,3]oxazin-3-yl)furo[2,3-d]pyrimidin-4-yl)-3-(4-fluorophenyl)-1H-pyrazol-1-yl)-2-methylpropan-2-ol], the IC50 amounted to 0.203 nM in assay [1], 1000 nM with Ba/F3_EGFR WT cells (setting [2]), 11.2 nM in the assay with BaF3_EGFR LR/CS cells (setting [3]) and 10.2 nM in the assay on BaF3_EGFR d19/CS cells (setting [4]).

Regarding `COc1ncccc1-c1cc2c(-c3cn(CCC#N)nc3-c3ccc(F)cc3)ncnc2o1` [Example 285, 3-{3-(4-fluorophenyl)-4-[6-(2-methoxypyridin-3-yl)furo[2,3-d]pyrimidin-4-yl]-1H-pyrazol-1-yl}propanenitrile], the IC50 in assay [1] stood at 0.228 nM; with Ba/F3_EGFR WT cells (setting [2]), 321 nM; in the assay on BaF3_EGFR LR/CS cells (setting [3]) it was 4.86 nM; in the assay with BaF3_EGFR d19/CS cells (setting [4]), 3.75 nM.

Turning to `COc1ncccc1-c1cc2c(-c3cn(CC(F)(F)CO)nc3-c3ccc(F)cc3)ncnc2o1` [Example 286, 2,2-difluoro-3-{3-(4-fluorophenyl)-4-[6-(2-methoxypyridin-3-yl)furo[2,3-d]pyrimidin-4-yl]-1H-pyrazol-1-yl}propan-1-ol], the IC50 turned out to be 0.203 nM in assay [1], 1110 nM with Ba/F3_EGFR WT cells (setting [2]), 20.1 nM in the assay on BaF3_EGFR LR/CS cells (setting [3]) and 15.8 nM in the assay on BaF3_EGFR d19/CS cells (setting [4]).
